Legend:
Format in all cases: binding, mouse
[1] = test system: monoclonal antibody Sol-129; assay: competitive inhibition ELISA (c-ELISA), monoclonal antibody Sol-129; details: Sol-129 (IgG1); ± one standard deviation
Method: (§1) Five, 6 month old BALB/c mice were injected with 50 μl of the solanidine-KLH conjugate mixed 1:1 with Ribi adjuvant (Ribi Immunochem Research Inc., Hamilton, Mont.). The mice received half the dose intraperitoneally and half intramuscularly every other week for a total of three injections. One month later, and 4 days prior to fusion, a selected mouse was given an intraperitoneal injection of 50 μl of solanidine-KLHconjugate in sterile saline. The spleen was removed and the splenocytes fused with SP2/O myeloma cells as described by Stanker et al. (1986, J. Immunol., 136:4174-4180), the contents of which are incorporated by reference herein. The fused cells were plated over 30 96-well microculture plates previously coated with mouse peritoneal exudate cells (macrophage) and grown under conditions described by Elissalde et al. (1993, J. Agric. Food Chem., 41:2167-2171), the contents of which are also incorporated by reference herein.
(§2) db-ELISA. A modification of a direct-binding ELISA described by Stanker et al. (1993, J. Agric. Food Chem., 41:1332-1336), the contents of which are incorporated by reference herein, was used to screen the culture fluids from the growing hybridomas for antibodies to solanidine. Microtiter plates (Nunc Maxisorb, Roskilde, Denmark; or Costar high binding plates, Costar Corp., Wilmington, Mass.) were coated with SOL-BSA by addition of 100 μl/well of a 1 μg/ml solution of SOL-BSA in distilled water. The SOL-BSA was incubated in uncovered plates at 37° C. for 18 hr to evaporate the liquid and allow the SOL-BSA to coat the bottom of the microtiter wells. The "coated" plates were then stored in sealed plastic bags at 4° C. and used within 2 weeks. Nonreacted sites on the plates were blocked by adding 400 μl of a 3% solution of nonfat dry milk (NFDM) in assay buffer (0.1M Tris, 0.15M NaCl, 10 mg/ml nonfat dry milk, 0.001% Tween 20, 0.02% sodium azide) and incubating the plates at room temperature for 1 hr. The blocking solution was then discarded and 100 μl of the hybridoma supernatant(s) or anti-solanidine Mab (from ascites fluid) was added, and the plates incubated for 1 hr at 37° C. After incubation, the plates were washed with a solution of 0.05% TWEEN-20 in water, and peroxidase conjugated goat anti-mouse antiserum (Sigma Inc., St. Louis, Mo.), diluted 1:500 in assay buffer, was then added to each well. Following a second 1 hr incubation at 37° C., the plates were washed as described above. Finally, the substrate, 2,2'-azino-bis(ethylbenzthiazole-6-sulfonic acid) (ABTS), was added. Absorbance was measured at 405 nm and the resulting data analyzed by computer using an Excel (Microsoft, Redmond, Wash.) spreadsheet program.
(§3) c-ELISA. The competitive inhibition ELISA for solanidine and other glycoalkaloids was carried out as previously described for other compounds by Stanker et al. (1993, ibid). Briefly, to each well of an antigen (glycoalkaloid or aglycone) coated, non-fat-milk-blocked, microtiter plate prepared as described in the db-ELISA was added 100 μl of assay buffer. Competitors (free solanidine and other glycoalkaloids and aglycones, and four structurally related steroids cholesterol, digitonin, βsitosterol, and stigmasterol, shown in Table 1) dissolved in 100 μl of assay buffer were added to the microassay plate and serially diluted (a 2-fold series). Next, 100 μl of assay buffer containing a predetermined amount of anti-solanidine monoclonal antibody prepared above was added to each well. The amount of anti-alkaloid antibody added was the concentration (dilution from tissue culture supernatant) resulting in approximately 50% of maximum binding or signal in a direct-binding ELISA where no competitor was present. The plates were sealed with plastic wrap, incubated for 1 hr at 37° C., and then processed as described in the db-ELISA to detect bound antibody. […]

[2] = test system: monoclonal antibody Sol-59; assay: competitive inhibition ELISA (c-ELISA), monoclonal antibody Sol-59; details: Sol-59 (IgG2a); ± one standard deviation
Method: as §1, §2, §3

[3] = test system: monoclonal antibody Sol-71; assay: competitive inhibition ELISA (c-ELISA), monoclonal antibody Sol-71; details: Sol-71 (IgG2a); ± one standard deviation
Method: as §1, §2, §3

[4] = test system: monoclonal antibody Sol-91; assay: competitive inhibition ELISA (c-ELISA), monoclonal antibody Sol-91; details: Sol-91 (IgG2a); ± one standard deviation
Method: as §1, §2, §3

[5] = test system: eleven monoclonal antibodies; assay: competitive inhibition ELISA (c-ELISA), all eleven monoclonal antibodies; details: in words
Method: as §1, §2
c-ELISA. […]

[6] = test system: monoclonal antibody Sol-55; assay: competitive inhibition ELISA (c-ELISA), monoclonal antibody Sol-55; details: Sol-55 (IgG2a); ± one standard deviation
Method: as §1, §2, §3

[7] = test system: monoclonal antibody Sol-54; assay: competitive inhibition ELISA (c-ELISA), monoclonal antibody Sol-54; details: Sol-54 (IgG2a); ± one standard deviation
Method: as §1, §2, §3

[8] = test system: monoclonal antibody Sol-67; assay: competitive inhibition ELISA (c-ELISA), monoclonal antibody Sol-67; details: Sol-67 (IgG1); ± one standard deviation
Method: as §1, §2, §3

[9] = test system: monoclonal antibody Sol-106; assay: competitive inhibition ELISA (c-ELISA), monoclonal antibody Sol-106; details: Sol-106 (IgG2a); ± one standard deviation
Method: as §1, §2, §3

[10] = test system: monoclonal antibody Sol-8; assay: competitive inhibition ELISA (c-ELISA), monoclonal antibody Sol-8; details: Sol-8 (IgG2a); ± one standard deviation
Method: as §1, §2, §3

[11] = test system: monoclonal antibody Sol-68; assay: competitive inhibition ELISA (c-ELISA), monoclonal antibody Sol-68; details: Sol-68 (IgG1); ± one standard deviation
Method: as §1, §2, §3

SMILES | IC50 [1] | IC50 [2] | IC50 [3] | IC50 [4] | cross-reaction of the antibodies [5] | IC50 [6] | IC50 [7] | IC50 [8] | IC50 [9] | IC50 [10] | IC50 [11]
C[C@@H]1CC[C@@]2(OC1)O[C@H]1[C@@H](O)[C@H]3[C@@H]4CC[C@H]5C[C@@H](O[C@@H]6O[C@H](CO)[C@H](O[C@@H]7O[C@H](CO)[C@@H](O)[C@H](O[C@@H]8OC[C@@H](O)[C@H](O)[C@H]8O)[C@H]7O[C@@H]7O[C@H](CO)[C@H](O)[C@H](O[C@@H]8O[C@H](CO)[C@@H](O)[C@H](O)[C@H]8O)[C@H]7O)[C@H](O)[C@H]6O)[C@H](O)C[C@]5(C)[C@H]4CC[C@]3(C)[C@H]1[C@@H]2C [digitonin] | nc (no competition at 10,000 ppb) | nc (no competition at 10,000 ppb) | nc (no competition at 10,000 ppb) | nc (no competition at 10,000 ppb) | None of the eleven antibodies cross-reacted | nc (no competition at 10,000 ppb) | nc (no competition at 10,000 ppb) | nc (no competition at 10,000 ppb) | nc (no competition at 10,000 ppb) | nc (no competition at 10,000 ppb) | nc (no competition at 10,000 ppb)
CC(C)CCC[C@@H](C)[C@H]1CC[C@H]2[C@@H]3CC=C4C[C@@H](O)CC[C@]4(C)[C@H]3CC[C@]12C [cholesterol] | nc (no competition at 10,000 ppb) | nc (no competition at 10,000 ppb) | nc (no competition at 10,000 ppb) | nc (no competition at 10,000 ppb) | None of the eleven antibodies cross-reacted | nc (no competition at 10,000 ppb) | nc (no competition at 10,000 ppb) | nc (no competition at 10,000 ppb) | nc (no competition at 10,000 ppb) | nc (no competition at 10,000 ppb) | nc (no competition at 10,000 ppb)
CC[C@H](/C=C/[C@@H](C)[C@H]1CC[C@H]2[C@@H]3CC=C4C[C@@H](O)CC[C@]4(C)[C@H]3CC[C@]12C)C(C)C [stigmasterol] | nc (no competition at 10,000 ppb) | nc (no competition at 10,000 ppb) | nc (no competition at 10,000 ppb) | nc (no competition at 10,000 ppb) | None of the eleven antibodies cross-reacted | nc (no competition at 10,000 ppb) | nc (no competition at 10,000 ppb) | nc (no competition at 10,000 ppb) | nc (no competition at 10,000 ppb) | nc (no competition at 10,000 ppb) | nc (no competition at 10,000 ppb)
